Experimental data reported in patent EP3915971A1, “PHENYL-S(O)N-PHENYLAMIDINES AND THE USE THEREOF AS FUNGICIDES” (Bayer Aktiengesellschaft, priority 2020, dated 2021).

Legend:
Phakospora pachyrhizi = assay: in vivo preventive test on Phakospora pachyrhizi (soybean rust); conditions: Glycine max, 264 h; 500 ppm of active ingredient; preventive spray on young soybean plants, inoculation after 24 hours, evaluated 11 days after inoculation; 0% = control plants, 100% = no disease; read-out: efficacy
Experimental: Example A: in vivo preventive test on Phakospora pachyrhizi (soybean rust) [table] The active ingredients were made soluble and homogenized in a mixture of Dimethyl sulfoxide/Acetone/ /Tween® 80 and then diluted in water to the desired concentration. The young plants of soybean were treated by spraying the active ingredient prepared as described above. Control plants were treated only with an aqueous solution of Acetone/Dimethyl sulfoxide/ Tween® 80. After 24 hours, the plants were contaminated by spraying the leaves with an aqueous suspension of Phakospora pachyrhizi spores. The contaminated soybean plants were incubated for 24 hours at 24°C and at 100% relative humidity and then for 10 days at 24°C and at 70-80% relative humidity. The test was evaluated 11 days after the inoculation. 0% means an efficacy which corresponds to that of the control plants while an efficacy of 100% means that no disease was observed.

[1] = LogP measurement by HPLC on reversed phase columns (EEC directive 79/831 Annex V.A8); format: physicochemical; conditions: reversed phase HPLC columns
How it was run: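 Reversed-phase HPLC with LC-UV per EEC directive 79/831 Annex V.A8, linear 10–95% acetonitrile gradient. Aqueous phase was 0.1% formic acid (acidic), 0.001 molar ammonium acetate (neutral) or 0.1% phosphoric acid (acidic), by method.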

[2] = method [a]: LC-UV, acidic range, 0.1% formic acid in water and acetonitrile as eluent (linear gradient 10% to 95% acetonitrile)
[3] = method [b]: LC-UV, neutral range, 0.001 molar ammonium acetate solution in water and acetonitrile as eluent (linear gradient 10% to 95% acetonitrile)

chromatographic logP [1, 2]	chromatographic logP [1, 3]	SMILES	pest or weed control at 500 ppm (Phakospora pachyrhizi) [%]
1.72	5.3	CCN(C)C=Nc1cc(C)c(Sc2ccccc2C#N)cc1C(C)C [Example I-101, N'-[4-[(2-cyanophenyl)thio]-2-isopropyl-5-methylphenyl]-N-ethyl-N-methylmethanimidamide]	≥ 70
1.58	4.95	CCc1cc(Sc2ccccc2C#N)c(C)cc1N=CN(C)CC [Example I-102, N'-[4-[(2-cyanophenyl)thio]-2-ethyl-5-methylphenyl]-N-ethyl-N-methylmethanimidamide]	≥ 70
1.99	6.2	CCc1cc(Sc2ccccc2Cl)c(C)cc1N=CN(C)CC [Example I-103, N'-[4-[(2-chlorophenyl)thio]-2-ethyl-5-methylphenyl]-N-ethyl-N-methylmethanimidamide]	≥ 70
